In publication PMC4847728 (ACS chemical biology, 2015):
≈ marks a conversion by molar mass, not a printed value.

Assays:
[1] = tested on: Staphylococcus aureus ATCC 10537 (MRSA); assay: MIC, liquid microdilution, MRSA; format: cell-based; settings: 18 h, 37 °C
[2] = tested on: Enterococcus faecium ATCC 12952 (VRE); assay: MIC, liquid microdilution, VRE; format: cell-based; settings: 18 h, 37 °C
[3] = tested on: Bacillus sp. ATCC 27859; assay: MIC, liquid microdilution, Bacillus; format: cell-based; settings: 18 h, 37 °C
[4] = tested on: in vitro protein synthesis (E. coli S30 Extract System); assay: In vitro transcription-translation coupled assay; format: biochemical; settings: read-out: IC50, in vitro translation inhibition, pBESTLuc template, 37 °C, 1 h, triplicate

With `C=C(NC(=O)C(=C)NC(=O)c1csc(C2=N[C@@H]3c4csc(n4)[C@H]4NC(=O)c5csc(n5)[C@H]([C@](C)(O)[C@@H](C)O)NC(=O)[C@H]5CSC(=N5)/C(=C/C)NC(=O)[C@H]([C@@H](C)O)NC(=O)c5csc(n5)[C@]3(CC2)NC(=O)[C@H](C)NC(=O)C(=C)NC(=O)[C@H](C)NC(=O)[C@H]([C@@H](C)CC)N[C@@H]2C=Cc3c([C@H](C)O)cc(nc3[C@H]2O)C(=O)O[C@@H]4C)n1)C(N)=O` [Thiostrepton A, thiostrepton A] the “MIC MRSA” value [1] was 0.012 µg/mL (≈ 7.21 nM), the “MIC VRE” value [2] was 0.012 µg/mL (≈ 7.21 nM) and the “MIC Bacillus” value [3] was 0.025 µg/mL (≈ 15 nM). For the same molecule, the IC50 [4] was 630 ± 10 nM.
